# How the values were obtained:
# [1] = tested on: C. elegans wild-type N2 strain; assay: Worm culture and growth assay in axenic CeHR/mCeHR liquid medium; assay type: in vivo; set-up: key to Growth 1.6 μM hemin / Growth 0.5 μM GaPP: + = wild type equivalent In growth; ND: No growth
# Method: (D) Biphasic response of C. elegans cultured in the presence of increasing amounts of hemin chloride (μM). Equal numbers of synchronized L1 larvae were grown in 24-well plates in mCeHR medium for 9 days and quantified (worms/μl) by microscopy. Each data point represents the mean±SD from three separate experiments performed in triplicate.
# (A) Aerobic growth of C. elegans in mCeFIR medium with 20 μM hemin supplemented with either gallium protoporphyrin IX (GaPP) or gallium salts. Synchronized L1 larvae were grown for 9 days in 24-well plates and quantified (worms/μl) by microscopy. Each data point represents the mean from a single experiment, and each experiment was performed in triplicate. Inset depicts the GaPP analysis at lower concentrations for clarity.
# (B) Effect of heme on the cytotoxicity of GaPP. Synchronized L1 larvae were inoculated in 24-well plates containing mCeHR medium with either 0, 2, 4, or 6 μM GaPP and increasing hemin (μM). The number of worms per μl was measured on day 9 and the data are presented as mean±SD.
# FIG. 9 depicts worm utilization of heme-iron under iron deprivation. Equal numbers of synchronized L1 larvae were grown in the presence of 4, 20, and 100 μM hemin, either in basal mCeHR medium (set 1), or basal medium lacking exogenous iron (set 2), or as set 2 with 1 μM of the iron chelator ferrozine (set 3), or as set 3 with 486 μM ferrous ammonium sulfate (set 4). These values of ferrozine and iron were empirically determined by performing dose-response experiments and analyzing worm growth. The number of worms per μl was measured on day 9 and the data presented as mean±SD performed in triplicate. P<0.001 between sets 1 and 3.
# To qualitatively and quantitatively determine the heme requirement of C. elegans, we assessed growth at various heme concentrations. Equal numbers of L1 larvae were inoculated in CeHR medium with either no cytochrome c and hemin, or with cytochrome c and increasing amounts of hemin (FIG. 4A). The effect of hemin became apparent within 48 hours and by 9 days, the heme-deplete worms were severely growth retarded at the L1/L2 stages. […] However, this stimulatory effect of heme was toxic to worms grown at heme concentrations >750 μM. To quantitatively assess the effect of heme on worms, we counted the number of live worms grown under different concentration of heme using DIC microscopy. […] On the basis of this association between heme and the growth and reproduction of C. elegans, we conclude that the biphasic nature of heme is likely due to the need for heme under heme-deprived conditions to perform essential metabolic functions, and the lethality of heme at high concentrations can be attributed to its cytotoxic activity.
# Worm Culture and Growth Assays. Free-living worms were cultured in CeHR axenic liquid medium (Dr. Eric Clegg, Personal Communication). […] CeHR medium was modified (henceforth called mCeHR) to eliminate all sources of exogenously added heme; basal growth medium comprised 20 μM hemin chloride (Frontier Scientific, Logan, Utah) and 150 μM of ferrous ammonium sulfate (Sigma Chemicals). Worm strains were grown in mCeHR medium under aerobic conditions in tissue culture flasks at 20° C. ˜3.7×10^6 worms were routinely obtained after 3.5 to 4 days in a T75 flask with 30 ml basal medium from an initial inoculum of −1.5×10^5 worms. For initial culturing of worms in axenic media, three generations of worms were sequentially bleached (1.1% bleach/0.55 M NaOH) to eliminate any contaminating bacterial carryover from agar plates. In all dose-response experiments, worms were growth synchronized by treating the gravid hermaphrodite worms with bleach to dissolve adult worms. The eggs, resistant to bleach, were liberated from the carcasses and extensively washed with M9 buffer followed by overnight hatching in M9 buffer to synchronize growth. By harvesting at appropriate time intervals, synchronous larval stages and adult staged worms were collected for experimental manipulations. […]
# [2] = tested on: C. elegans genes transcriptionally regulated by heme; assay: Affymetrix C. elegans Genome Array: genes transcriptionally regulated by heme (4 and 500 μM vs 20 μM hemin); assay type: in vivo, Caenorhabditis elegans; details: low heme (4 μM)
# Method: Worms were grown at 4 μM (low) 20 μM (optimal) and 500 μM (high) hemin in axenic CeHR medium. We chose 4 and 500 μM hemin because these heme concentrations were at either end of the worm growth spectrum, and worms at these heme concentrations show a ˜24 h growth delay compared to worms grown at 20 μM hemin. […] In order to eliminate maternal effect genes, wild-type N2 worms were grown for two synchronized generations in their respective hemin concentrations to obtain F2 worms at the […] as determined by morphological analysis of the vulva. F2 worms from all three heme conditions were harvested at the same mid-L4 stage for final RNA extraction. The RNA was extracted with Trizol and treated with RNase-free DNase to remove any contaminating DNA followed by a purification on a Qiagen RNeasy column. Each experiment was performed four independent times on four separate days to ensure proper sampling and to account for experimental variations. […]
# From these genes, 58 genes were excluded because they were specific to germline, sperm or oocyte development, as determined by cross-checking with publicly available microarray databases. […]
# The initial statistical analysis of the Affymetrix genome array was performed at the NIDDK microarray facility using Affymetrix MAS 5.0 Suite software. […] The standard error for ΔΔCt will be calculated by the method of Livak and Schmittgen. […]
substance,measurement,setting,value
hemin chloride,growth delay compared to worms grown at 20 μM hemin,[1]; 4 and 500 μM hemin,~24 h
same,effect on growth under iron deprivation,"[1]; 20 and 100 μM hemin, with ferrozine, P<0.001",attenuated the growth retarding effects of iron deprivation
same,heme concentrations toxic to worms,[1]; CeHR medium,> 750 µM
same,hemin concentration at which maximum growth was achieved,"[1]; CeHR medium with cytochrome c, L1 larvae inoculum",10 µM
same,Growth 1.6 μM hemin,[1]; Control Wild-type (N2),+
same,Generation time (Days) 20 μM,"[1]; Control Wild-type (N2), 20 μM hemin",3.5 days
same,brood size 20 μM,"[1]; Control Wild-type (N2), 20 μM hemin, average in 24 well plates",62.3
same,Generation time (Days) 800 μM,"[1]; Control Wild-type (N2), 800 μM hemin",>16 days
same,sensitivity to heme in liquid medium versus heme plates,[1]; in vivo,10 times
same,hemin amount resulting in growth arrest at the L3 stage,[1]; mCeHR medium,≥ 800 µM
same,optimum concentration of hemin for growth,"[1]; mCeHR medium, 9 days",20 µM
same,upregulation of R02E12.6 in microarrays,[2],16 fold

# From patent publication US20060206946A1, “Method of disrupting heme transport in nematodes and of modelling and evaluating eukaryotic heme transport” (priority 2005, published 2006)
